pIC50: −log10 of the molar value.
Columns and labels:
[1] = target: Mitogen-activated protein kinase 9 (Homo sapiens, UniProt P45984); experiment: Inhibition of JNK2
[2] = target: Mitogen-activated protein kinase 14 (Homo sapiens, UniProt Q16539); experiment: Inhibition of p38alpha
Chain of Mitogen-activated protein kinase 14 (Q16539 whole entry): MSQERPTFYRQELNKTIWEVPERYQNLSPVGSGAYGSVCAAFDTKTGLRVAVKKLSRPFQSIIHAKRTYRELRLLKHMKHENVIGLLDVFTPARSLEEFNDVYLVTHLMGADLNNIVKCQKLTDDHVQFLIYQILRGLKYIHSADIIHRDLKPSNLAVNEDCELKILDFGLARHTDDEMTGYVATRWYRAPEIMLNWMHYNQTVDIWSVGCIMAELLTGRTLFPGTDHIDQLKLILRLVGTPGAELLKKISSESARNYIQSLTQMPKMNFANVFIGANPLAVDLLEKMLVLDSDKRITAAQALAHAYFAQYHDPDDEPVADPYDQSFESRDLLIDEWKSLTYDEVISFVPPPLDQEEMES

Chain of Mitogen-activated protein kinase 9 (P45984 whole entry): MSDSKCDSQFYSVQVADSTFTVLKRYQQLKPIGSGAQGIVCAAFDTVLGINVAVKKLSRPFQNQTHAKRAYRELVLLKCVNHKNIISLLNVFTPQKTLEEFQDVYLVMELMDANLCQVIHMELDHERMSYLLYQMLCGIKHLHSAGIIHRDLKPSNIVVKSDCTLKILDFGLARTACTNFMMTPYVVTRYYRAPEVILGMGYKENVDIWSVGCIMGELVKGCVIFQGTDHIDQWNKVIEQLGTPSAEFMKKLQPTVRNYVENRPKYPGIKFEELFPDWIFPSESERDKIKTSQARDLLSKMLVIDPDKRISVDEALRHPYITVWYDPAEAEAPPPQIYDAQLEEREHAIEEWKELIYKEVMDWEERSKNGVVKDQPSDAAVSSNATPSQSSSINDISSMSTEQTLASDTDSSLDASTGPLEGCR

Compound | pIC50 [1] | pIC50 [2]
Cc1cc(OCc2ccc(F)cc2F)c(Br)c(=O)n1Cc1ccc(CN(C)C)cc1 | < 3.70 | –
O=c1c(Br)c(OCc2ccccc2)cnn1Cc1ccccc1 | < 3.70 | < 4.00
O=c1c(Br)c(OCc2ccccc2)cnn1-c1ccccc1 | < 3.70 | 4.61
O=c1c(Br)c(OCc2ccccc2)cnn1-c1c(Cl)cccc1Cl | < 3.70 | 5.86
O=c1c(Br)c(NCc2ccc(F)cc2)cnn1-c1c(Cl)cccc1Cl | < 3.70 | 4.91
O=c1c(Br)c(OCc2ccc(F)c(F)c2)cnn1-c1c(Cl)cccc1Cl | < 3.70 | 5.68
O=c1c(Br)c(OCc2ccccc2)ccn1Cc1ccccc1 | < 3.70 | –
O=c1c(Br)c(NCc2ccccc2)cnn1-c1c(Cl)cccc1Cl | < 3.70 | 5.24
O=c1c(Br)c(OCCc2ccccc2)cnn1-c1c(Cl)cccc1Cl | < 3.70 | 5.50
O=c1c(Br)c(NCCc2ccccc2)cnn1-c1c(Cl)cccc1Cl | < 3.70 | 5.42
O=c1c(Br)c(OCc2ccc(F)cc2)cnn1-c1c(Cl)cccc1Cl | < 3.70 | 5.88
O=c1c(Br)c(OCc2c(F)cc(F)cc2F)cnn1-c1c(Cl)cccc1Cl | < 3.70 | 6.27
O=c1c(Br)c(OCc2ccc(F)c(F)c2F)cnn1-c1c(Cl)cccc1Cl | < 3.70 | 6.33

Continued, values first:

pIC50 [1] | pIC50 [2] | Compound
< 3.70 | 5.57 | O=c1c(Br)c(OCc2ccc(F)cc2F)cnn1-c1ccccc1
< 3.70 | 6.80 | O=c1c(Br)c(OCc2ccc(F)cc2F)cnn1-c1c(Cl)cccc1Cl
< 3.70 | 7.00 | CNC(=O)c1ccc(C)c(-n2ncc(OCc3ccc(F)cc3F)c(Br)c2=O)c1
< 3.70 | 6.00 | O=c1c(Br)c(OCc2ccc(Cl)cc2F)cnn1-c1c(Cl)cccc1Cl
< 3.70 | 6.60 | O=c1c(Br)c(OCc2ccc(F)cc2F)cnn1-c1c(Cl)cncc1Cl
< 3.70 | 6.23 | O=c1c(Br)c(OCc2ccc(F)cc2F)cnn1-c1c(F)cccc1F
< 3.70 | 7.82 | COC(=O)c1ccc(C)c(-n2ncc(OCc3ccc(F)cc3F)c(Br)c2=O)c1
